This note sets out measurements from ChEMBL document CHEMBL4411284, “Discovery of novel quaternary ammonium compounds based on quinuclidine-3-ol as new potential antimicrobial candidates” (Eur J Med Chem, 2019).

Active and inactive are the calls of the source. No cut-off for these calls is given here.

In assay [1] the test system is Staphylococcus aureus. Briefly: Antimicrobial activity against Staphylococcus aureus ATCC 29213 after 24 to 48 hrs by broth microdilution assay. Format: functional. Background: Dilution methods test growth across graded concentrations, often in twofold steps.
Assay [2] deals with Staphylococcus aureus. Briefly: Induction of morphological changes in Staphylococcus aureus ATCC 29213 assessed as cell wall damage at MIC after 1 hr by atomic force microscopic analysis. Format: functional, organism-based.
For another assay, the system named is HEK293. Briefly: Cytotoxicity against HEK293 cells assessed as reduction in cell viability after 48 hrs by MTS assay. Format: cell-based. The conditions noted are these: Homo sapiens, HEK293, 48 h.
Assay [3] has as its system Staphylococcus aureus. Description: Bactericidal activity against Staphylococcus aureus ATCC 29213 preincubated for 24 to 48 hrs followed by replating on MHA plates and measured after 18 hrs by broth microdilution assay. Format: functional.
In the next assay the test system is HeLa. Briefly: Cytotoxicity against human HeLa cells assessed as reduction in cell viability after 48 hrs by MTS assay. Format: cell-based. Background: Tetrazolium assays rely on reduction of a dye to a coloured formazan, in cell work by metabolically active cells.
Assay [4] deals with Escherichia coli. Briefly: Antimicrobial activity against Escherichia coli ATCC 25922 after 24 to 48 hrs by broth microdilution assay. In kind it is functional.
Assay [5] has as its system Escherichia coli. Description: Bactericidal activity against Escherichia coli ATCC 25922 preincubated for 24 to 48 hrs followed by replating on MHA plates and measured after 18 hrs by broth microdilution assay. Format: functional.
Assay [6] concerns Acinetobacter baumannii. Description: Antimicrobial activity against Acinetobacter baumannii ATCC 19606 after 24 to 48 hrs by broth microdilution assay. Format: functional. Conditions: ATCC 19606 = CIP 70.34 = JCM 6841.
Assay [7] has as its system Enterococcus faecalis. Description: Antimicrobial activity against Enterococcus faecalis ATCC 29212 after 24 to 48 hrs by broth microdilution assay. In kind it is functional.
Another assay concerns Aspergillus niger. Description: Antifungal activity against Aspergillus niger after 24 to 48 hrs by broth microdilution assay. Format: functional.
The next assay concerns Candida albicans. Briefly: Antifungal activity against Candida albicans ATCC 90029 after 24 to 48 hrs by broth microdilution assay. Format: functional.
The subject of assay [8] is Klebsiella pneumoniae. Description: Bactericidal activity against Klebsiella pneumoniae clinical isolate preincubated for 24 to 48 hrs followed by replating on MHA plates and measured after 18 hrs by broth microdilution assay. Format: functional.
In assay [9] the test system is Escherichia coli. Briefly: Antimicrobial activity against Escherichia coli clinical isolate after 24 to 48 hrs by broth microdilution assay. Format: functional.
In assay [10] the test system is Pseudomonas aeruginosa. Description: Bactericidal activity against Pseudomonas aeruginosa ATCC 27853 preincubated for 24 to 48 hrs followed by replating on MHA plates and measured after 18 hrs by broth microdilution assay. In kind it is functional.
Assay [11] deals with Streptococcus pyogenes. Description: Antimicrobial activity against Streptococcus pyogenes ATCC 19615 after 24 to 48 hrs by broth microdilution assay. In kind it is functional.
Assay [12] deals with Escherichia coli. Description: Bactericidal activity against Escherichia coli clinical isolate preincubated for 24 to 48 hrs followed by replating on MHA plates and measured after 18 hrs by broth microdilution assay. In kind it is functional.
For another assay, the system named is Penicillium citrinum. Briefly: Antifungal activity against Penicillium citrinum after 24 to 48 hrs by broth microdilution assay. Format: functional.
The test system of assay [13] is Staphylococcus aureus. Briefly: Bactericidal activity against methicillin-resistant Staphylococcus aureus clinical isolate preincubated for 24 to 48 hrs followed by replating on MHA plates and measured after 18 hrs by broth microdilution assay. In kind it is functional.
Assay [14] deals with Streptococcus pyogenes. Description: Bactericidal activity against Streptococcus pyogenes ATCC 19615 preincubated for 24 to 48 hrs followed by replating on MHA plates and measured after 18 hrs by broth microdilution assay. Format: functional.
The subject of assay [15] is Klebsiella pneumoniae. Description: Antimicrobial activity against Klebsiella pneumoniae clinical isolate after 24 to 48 hrs by broth microdilution assay. Format: functional.
The subject of assay [16] is Klebsiella pneumoniae. Description: Bactericidal activity against Klebsiella pneumoniae ATCC 13883 preincubated for 24 to 48 hrs followed by replating on MHA plates and measured after 18 hrs by broth microdilution assay. In kind it is functional.
Assay [17] relates to Staphylococcus aureus. Description: Antimicrobial activity against methicillin-resistant Staphylococcus aureus clinical isolate after 24 to 48 hrs by broth microdilution assay. Format: functional.
The test system of assay [18] is Salmonella typhimurium. Briefly: Bactericidal activity against Salmonella typhimurium WDCM 00031 preincubated for 24 to 48 hrs followed by replating on MHA plates and measured after 18 hrs by broth microdilution assay. Format: functional, Salmonella enterica subsp. enterica serovar Typhimurium. Conditions: Salmonella enterica.
The test system of assay [19] is Acinetobacter baumannii. Briefly: Bactericidal activity against Acinetobacter baumannii clinical isolate preincubated for 24 to 48 hrs followed by replating on MHA plates and measured after 18 hrs by broth microdilution assay. In kind it is functional.
Assay [20] deals with Klebsiella pneumoniae. Description: Antimicrobial activity against Klebsiella pneumoniae ATCC 13883 after 24 to 48 hrs by broth microdilution assay. Format: functional.
Assay [21] concerns Listeria monocytogenes. Description: Antimicrobial activity against Listeria monocytogenes ATCC 19111 (1/2a) after 24 to 48 hrs by broth microdilution assay. Format: functional.
In assay [22] the test system is Pseudomonas aeruginosa. Description: Antimicrobial activity against Pseudomonas aeruginosa ATCC 27853 after 24 to 48 hrs by broth microdilution assay. In kind it is functional.
The test system of assay [23] is Enterococcus faecalis. Description: Bactericidal activity against Enterococcus faecalis ATCC 29212 preincubated for 24 to 48 hrs followed by replating on MHA plates and measured after 18 hrs by broth microdilution assay. In kind it is functional.
Assay [24] has as its system Salmonella typhimurium. Description: Antimicrobial activity against Salmonella typhimurium WDCM 00031 after 24 to 48 hrs by broth microdilution assay. Format: functional, Salmonella enterica subsp. enterica serovar Typhimurium. Conditions: Salmonella enterica.
The test system of assay [25] is Acinetobacter baumannii. Description: Antimicrobial activity against Acinetobacter baumannii clinical isolate after 24 to 48 hrs by broth microdilution assay. In kind it is functional.
The subject of assay [26] is Acinetobacter baumannii. Description: Bactericidal activity against Acinetobacter baumannii ATCC 19606 preincubated for 24 to 48 hrs followed by replating on MHA plates and measured after 18 hrs by broth microdilution assay. Format: functional. Conditions: ATCC 19606 = CIP 70.34 = JCM 6841.
For assay [27], the system named is Listeria monocytogenes. Briefly: Bactericidal activity against Listeria monocytogenes ATCC 19111 (1/2a) preincubated for 24 to 48 hrs followed by replating on MHA plates and measured after 18 hrs by broth microdilution assay. Format: functional.

As to `CCCCCCCCCCCC[N+](C)(C)Cc1ccccc1.[Br-]`, the MIC came to 1.5 µg/mL against Staphylococcus aureus [1] and 3.9 µg/mL against Escherichia coli [4]. Also, the outcome with Staphylococcus aureus [2] was Active. Also, the IC50 turned out to be 1 µg/mL in the assay with HEK293 and 3.98 µg/mL with HeLa. For the same molecule, the MBC in the assay on Staphylococcus aureus [3] came to 1.5 µg/mL; against Escherichia coli [5], 3.9 µg/mL.

With `CCCCCCCCCC[N+]12CCC(CC1)C(O)C2.[Br-]` (centres undefined), the minimum inhibitory concentration (MIC) with Staphylococcus aureus [1] was 125 µg/mL; in the assay on Acinetobacter baumannii [6], 1000 µg/mL; against Enterococcus faecalis [7] it was 250 µg/mL; with Escherichia coli [9] it was 500 µg/mL; in the assay on Streptococcus pyogenes [11] it was 15.6 µg/mL; against Klebsiella pneumoniae [15] it was 1000 µg/mL. Moreover, the MIC came to 500 µg/mL against Staphylococcus aureus [17]; 250 µg/mL in the assay with Escherichia coli [4]; 1000 µg/mL in the assay with Klebsiella pneumoniae [20]; 250 µg/mL with Listeria monocytogenes [21]; 2000 µg/mL with Pseudomonas aeruginosa [22]; 1000 µg/mL against Salmonella typhimurium [24]. Further, in the assay on Acinetobacter baumannii [25], 500 µg/mL was the least that counted as inhibitory (MIC). The MIC50 against Aspergillus niger turned out to be 125 µg/mL; in the assay with Candida albicans it was 31.2 µg/mL; in the assay with Penicillium citrinum, 250 µg/mL. Moreover, the results for the MIC90 with Aspergillus niger, in the assay with Candida albicans and in the assay on Penicillium citrinum were 250 µg/mL, 62.5 µg/mL and 500 µg/mL, respectively. For the same molecule, the MBC stood at 1000 µg/mL in the assay on Klebsiella pneumoniae [8]; 2000 µg/mL in the assay on Pseudomonas aeruginosa [10]; 500 µg/mL against Escherichia coli [12]; 500 µg/mL against Staphylococcus aureus [13]; 15.6 µg/mL against Streptococcus pyogenes [14]; 1000 µg/mL against Klebsiella pneumoniae [16]. In addition, the MBC with Staphylococcus aureus [3] came to 125 µg/mL; against Salmonella typhimurium [18] it was 1000 µg/mL; with Escherichia coli [5], 250 µg/mL; in the assay with Acinetobacter baumannii [19] it was 1000 µg/mL; in the assay with Enterococcus faecalis [23], 250 µg/mL; in the assay on Acinetobacter baumannii [26] it was 1000 µg/mL. In the assay on Listeria monocytogenes [27], the MBC amounted to 250 µg/mL.

By MIC is commonly meant the lowest concentration found to suppress growth. One may read the IC50 as the point on the concentration scale where inhibition reaches its midpoint. The MBC is the lowest tested concentration that kills the bacteria rather than only halting them. Read a high MBC as weaker bactericidal potency. As a reminder, the MIC50 is the lowest concentration that inhibits either 50% of growth or 50% of the strains tested, depending on the study. Low readings indicate greater potency, high ones weaker potency. The term MIC90 denotes the lowest concentration that inhibits either 90% of growth or 90% of the strains tested, depending on the study.
